The values that follow come from patent US4146720A, “N-Aminoethyl-substituted-3-nitronaphthalimides” (priority 1977, dated 1979).

The subject of series [1] is mouse. Nature of the series: Comparative toxicity study (LD0, LD50) and therapeutic index. To be noted: for LD0 (zero lethal dose or maximal permissible dose): LD0 expressed in mg/mouse; for LD50: LD50 expressed in mg/mouse. An excerpt:
(§1) In the study of the cytostatic action, 6-mercaptopurine was taken as the comparative anti-neoplastic drug.

Test in series [2]: as above
As to conditions: mouse, in vivo.
Source text: as §1

For series [3], the system named is HeLa cells. Kind of series: Cytotoxic activity on HeLa cells, comparison with corresponding 4-nitronaphthalimides. The class given is cell-based, human. As to conditions: relative; ID50 of 6-mercaptopurine is assigned the value "1"; 37° C., 72 hours; Lowry protein. The protocol:
A series of tests has been carried out comparing the compounds of our invention with the corresponding 4-nitronaphthalimides, with respect to their cytotoxic activity on HeLa cells. The cytotoxic activity test was carried out in accordance with the procedure set forth in "R. I. Heral. Cancer Chemotherapy Report part III, Vol. III, No. 2".
HeLa cells are human cancer cells commonly used for investigating the cytotoxic activity of compounds. These HeLa cells are cultured by the single layer tissue culture technique on glass slides in the laboratories of the Spanish company, Laboratories Made, S.A., of Madrid, Spain, the assignee of this application.
In the tests, there was used an initial culture containing approximately 125000 HeLa cells per milliliter. The initial culture was dispersed with trypsin and was stirred to maintain the cells in suspension therein. Portions of equal volume of the suspension were placed in separate test tubes and to the test tubes were added the various compounds set forth below in various concentrations. There was employed as a standard for comparison, the compound 6-mercaptopurine, a known anti-neoplastic agent whose cytotoxic activity on HeLa cells is well known. As a control, there were also employed test tubes containing the suspension and to which no compound was added.
The contents of the test tubes were cultured at 37° C. for 72 hours. Then the contents of the various test tubes were examined by optical microscope to determine the approximate proportion of cells whose cellular growth was inhibited. Then, the protein content of each tube was determined by the Lowry method, as modified by Oyama and Eagle (Proc. Soc. Exptl. Biol. Med. 91, 305 (1956), and these values are compared with the corresponding values obtained in the control test tubes wherein no compound was added. Comparison of these measured protein values provides a further determination of the inhibition of cell growth caused by the test compounds. With the data obtained from the test tubes containing the same compound in various concentrations, a graph was prepared of concentration of compound versus inhibition of growth of HeLa cells. From this, there can be obtained the so-called ID50 value, that is, the dose of the compound that inhibits HeLa cellular growth by 50%. This is then compared with the results for the comparison compound 6-mercaptopurine. For purposes of comparison, the ID50 value of 6-mercaptopurine is assigned the value "1".

Series [4] relates to Swiss I.C.R. albino mice. Nature of the series: Raticide/muricide action, drugs mixed with mice food for 7 days, Warfarin as comparative substance. As to conditions: for Dose to be taken in seven days: mixed with usual mice food at 1%, 0.5% and 0.1%, 7 days, oral; for Raticide and muricide action compared with Warfarin / Toxicity compared with Warfarin: in words. It counts as in vivo, mouse (Swiss I.C.R. albino). The protocol: The four drugs were given to Swiss I.C.R. albino mice during 7 days. The administration was done by mixing the drugs with the usual mice food at concentrations of 1%, 0.5% and 0.1%. Two cribs were put in each cage: one with the usual mice food and the other containing food to which our drugs were added at the above mentioned concentrations. The food of both cribs was weighed daily in order to see if the animals could distinguish it. Warfarin (3-(α-acetonylbenzyl)-4-hydroxycoumarin) was used as the comparative substance.

Series [5] relates to He-La cells and KB cells. Kind of series: Cytostatic action on He-La cells and on KB cells, 6-mercaptopurine as comparative drug (Table 1). To be noted: calculated using 6-mercaptopurine as the comparative drug (6-mercaptopurine = 1). The class given is cell-based, human. Also on record: unit not given beside the values.
Source text: as §1

The structures appear in SMILES notation.

Take `Sc1ncnc2nc[nH]c12` [6-mercaptopurine, reference compound]: in series [1], the “LD0 (zero lethal dose or maximal permissible dose)” value (“LD0” below) is reported as 1 mg/mouse and the LD50 was 5 mg/mouse. Besides, in series [2], the selectivity ratio amounted to 5.
In the case of `O=C1c2cccc3cc([N+](=O)[O-])cc(c23)C(=O)N1CCN1CCCCC1` [Compound 1, N-[2-(N-piperidino)ethyl]-3-nitronaphthalimide], the “ID50 (dose that inhibits HeLa cellular growth by 50%)” value in series [3] was determined as 2. For the same molecule, in series [1], the “LD0” value is recorded as 0.5 mg/mouse and the LD50 is listed as 2 mg/mouse. The “Dose to be taken in seven days” value in series [4] turned out to be 80 mg/kg. Moreover, the “ID50 (50% inhibitory dose)” value in series [5] is 2.
For `CCN(CC)CCN1C(=O)c2cccc3cc([N+](=O)[O-])cc(c23)C1=O` [Compound 2, N-(2-diethylaminoethyl)-3-nitronaphthalimide], the “ID50 (dose that inhibits HeLa cellular growth by 50%)” value in series [3] is given as 3. For the same molecule, in series [1], the “LD0” value is given as 0.15 mg/mouse and the LD50 was 2 mg/mouse. Further, in series [4], the “Raticide and muricide action compared with Warfarin” value is “great superiority over Warfarin as raticide and muricide agents”; the “Toxicity compared with Warfarin” value is given as “more toxic”; the “Dose to be taken in seven days” value is listed as 13 mg/kg. For the same molecule, in series [5], the “ID50 (50% inhibitory dose)” value was 3.
On to `CN(C)CCN1C(=O)c2cccc3cc([N+](=O)[O-])cc(c23)C1=O` [Compound 3, N-(2-dimethylaminoethyl)-3-nitronaphthalimide], for which the “ID50 (dose that inhibits HeLa cellular growth by 50%)” value in series [3] is on record as 0.15. For the same molecule, in series [1], the “LD0” value is reported as 0.2 mg/mouse and the LD50 is 0.30 mg/mouse. In addition, the selectivity ratio in series [2] was determined as 2. Further, in series [4], the “Raticide and muricide action compared with Warfarin” value is “great superiority over Warfarin as raticide and muricide agents”; the “Toxicity compared with Warfarin” value is reported as “more toxic”; the “Dose to be taken in seven days” value is recorded as 6.6 mg/kg. Further, in series [5], the “ID50 (50% inhibitory dose)” value is listed as 0.15.
For the molecule `O=C1c2cccc3cc([N+](=O)[O-])cc(c23)C(=O)N1CCN1CCCC1` [Compound 4, N-[2-(N-pyrrolidino)ethyl]-3-nitronaphthalimide], the “ID50 (dose that inhibits HeLa cellular growth by 50%)” value in series [3] is reported as 0.30. Moreover, in series [1], the “LD0” value worked out at 0.2 mg/mouse and the LD50 is 0.38 mg/mouse. Besides, in series [2], the selectivity ratio amounted to 1.26. Besides, in series [4], the “Raticide and muricide action compared with Warfarin” value is “great superiority over Warfarin as raticide and muricide agents”; the “Toxicity compared with Warfarin” value was “more toxic”; the “Dose to be taken in seven days” value was 6.6 mg/kg. In series [5], the “ID50 (50% inhibitory dose)” value is 0.3.
In the case of `O=C1c2cccc3c([N+](=O)[O-])ccc(c23)C(=O)N1CCN1CCCCC1` [N-[2-(N-piperidino)ethyl]-4-nitronaphthalimide, reference compound], in series [3], the “ID50 (dose that inhibits HeLa cellular growth by 50%)” value was determined as 5.
As to `O=C1c2cccc3c([N+](=O)[O-])ccc(c23)C(=O)N1CCN1CCCC1` [N-[2-(N-pyrrolidino)ethyl]-4-nitronaphthalimide, reference compound], the “ID50 (dose that inhibits HeLa cellular growth by 50%)” value in series [3] is listed as 4.
For the molecule `CCN(CC)CCN1C(=O)c2cccc3c([N+](=O)[O-])ccc(c23)C1=O` [N-[2-diethylaminoethyl]-4-nitronaphthalimide, reference compound], the “ID50 (dose that inhibits HeLa cellular growth by 50%)” value in series [3] stood at 5.5.
As for `CN(C)CCN1C(=O)c2cccc3c([N+](=O)[O-])ccc(c23)C1=O` [N-[2-dimethylaminoethyl]-4-nitronaphthalimide, reference compound], in series [3], the “ID50 (dose that inhibits HeLa cellular growth by 50%)” value came out at 3.
With `CC(=O)CC(c1ccccc1)c1c(O)c2ccccc2oc1=O` (stereo not drawn) [Warfarin, 3-(α-acetonylbenzyl)-4-hydroxycoumarin, reference compound], the “Dose to be taken in seven days” value in series [4] is given as 35 mg/kg.
